Details: in water

NC(N)=S
Details	solubility (mole fraction)
290.75 K	0.0256
293.05 K	0.0289
296.65 K	0.0347
300.25 K	0.0413
303.15 K	0.0474
307.1 K	0.0583
310.15 K	0.0641
313.15 K	0.071
315.85 K	0.0806
318.35 K	0.0886
320.75 K	0.0969
323.25 K	0.103
326.05 K	0.116
328.45 K	0.126
330.55 K	0.135
333.25 K	0.15
336.45 K	0.161
340.75 K	0.183
343.55 K	0.198
347.35 K	0.218
351.15 K	0.239
353.45 K	0.251
355.75 K	0.265

CC(C)Br
Details	solubility (mole fraction)
295.25 K	0.000587
300.15 K	0.00082
303.55 K	0.00104
306.25 K	0.00121
310.35 K	0.00157
313.25 K	0.00189
316.15 K	0.00227
321.25 K	0.00307
323.25 K	0.00343
325.55 K	0.00394
329.35 K	0.00483
331.25 K	0.00536
334.15 K	0.0063
337.35 K	0.00743
340.55 K	0.0087
343.15 K	0.0101
345.45 K	0.0112
348.55 K	0.0127
350.15 K	0.0139
352.35 K	0.0154
354.75 K	0.0171
